Data from patent publication US12433830B2, “Anti-aging compositions and methods of use thereof” (S.I.S. SHULOV INNOVATIVE SCIENCE LTD., priority 2019, dated 2025).
Where a SMILES comes first, the peptide text is derived from it. [ ]: non-standard residue; d: D form. The star is where a group is joined. pGlu = O=C1CC[C@@H](C(=O)O)N1; Octanoyl = CCCCCCCC(=O)*

Columns and labels:
epidermal cells [1] = assay: Viability of epidermal cells under stress conditions; type: cell-based; details: stress conditions (70 mM NaCl)
epidermal cells [2] = assay: Formation of reactive oxygen species (ROS) in epidermal cells under stress conditions; type: cell-based; details: stress conditions (70 mM NaCl)
[3] = test system: Mattek's EpiDerm™ X (EPI-606-X) reconstructed human epidermis tissue; assay: Skin metabolism, full scan HRMS search for metabolites in permeation samples; type: in vitro ADME; details: t=4, 8, 20, 22, 24 h vs time zero; positive and negative ESI
Procedure: The skin metabolism of ZEP3 and ZEP3Na was also investigated. Full scan HRMS chromatograms were acquired for the samples, in both positive and negative ESI mode, in order to identify possible metabolites of the target analytes. Differential analysis between the samples through the experiment (t=4, 8, 20, 22, and 24 h) and the sample at time zero was performed. Evaluation of the fragmentation profile through MS/MS experiments was also performed in order to provide additional information.

[4] = rat, chemical corneal injury; cited from earlier work

Row | Compound | viability of epidermal cells (epidermal cells [1]) | formation of reactive oxygen species (ROS) (epidermal cells [2]) | metabolites identified [3] | effect on ocular pain [4]
1 | CCCCCCCC(=O)NCCCC[C@H](NC(=O)[C@H](Cc1c[nH]c2ccccc12)NC(=O)[C@H](CC(N)=O)NC(=O)[C@@H]1CCC(=O)N1)C(=O)O [ZEP3, pGlu-Asn-Trp-Lys(Octanoyl)-OH] ([pGlu]NWK(Octanoyl)-OH) | increased viability of epidermal cells | reduced the formation of reactive oxygen species (ROS) | No metabolites | –
2 | pGlu-Asn-Trp-Thr-OH ([pGlu]NWT-OH; SMILES C[C@@H](O)[C@H](NC(=O)[C@H](Cc1c[nH]c2ccccc12)NC(=O)[C@H](CC(N)=O)NC(=O)[C@@H]1CCC(=O)N1)C(=O)O) [ZEP4] | increased viability of epidermal cells | reduced the formation of reactive oxygen species (ROS) | – | analgesic effect
